The target of one test is human MLKL (full length) (Homo sapiens (Human), UniProt Q8NB16). Kind of test: KINOMEscan binding assay, human MLKL (full length). The conditions noted are these: equilibrium dissociation constant. The method in brief: (§1)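 Active-site competition binding: DNA-tagged kinase (T7 phage fusion from BL21-derived E. coli lysate, or HEK-293-expressed) captured on immobilized-ligand beads, with bound kinase in the eluate quantified by qPCR. Compounds ran as 11-point 3-fold dilutions, 1% DMSO, top 30,000 nM for most. Kd came from a Hill fit (slope −1).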

A further test has as its target human RIPK3 (Homo sapiens (Human), UniProt Q9Y572). Kind of test: KINOMEscan binding assay, human RIPK3. Conditions: equilibrium dissociation constant. In a few lines: as §1
Another test relates to U937 cells. Nature of the test: Counter screen: U937 cell viability without TSQ cocktail (off-target effect). Also on record: species or system human. Conditions: Homo sapiens, U-937, compound without TSQ cocktail, read-out: Off-target effect (IC50 cell-based assay). In a few lines:
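Off-target viability counter screen: compounds titrated 36 μM down 1:3 over 10 points (0.3% DMSO) on 20,000 U937 cells/well, no TNF/Smac mimetic/Q-VD-OPh added, 48 h incubation. ATP-based CellTiter-Glo luminescence, four-parameter logistic IC50.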
(In general: The purpose of a counterscreen is to sort out artefacts and off-target activity.)

For test [1], the system named is U937 human histiocytic leukemia cell line. Kind of test: Inhibition of TSQ induced necroptosis in U937 cells (CellTitre-Glo). Conditions: Homo sapiens, U-937, TSQ cocktail (TNF, Smac mimetic, Q-VD-OPh), 48 hours, read-out: Inhibition of TSQ-induced necroptosis (IC50 cell-based assay). In a few lines:
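Necroptosis was induced with TNF-Fc (100 ng/ml), Smac mimetic (500 nM) and Q-VD-OPh (10 μM) in 20000 U937 cells/well exposed to a 10-point, 3-fold compound series (top 36 μM, 0.3% DMSO). ATP luminescence read after 48 h; 4-parameter fit gave IC50. Parallel TSQ-free wells assessed compound toxicity.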

For a further test, the target named is human RIPK1 (Homo sapiens (Human), UniProt Q13546). Kind of test: KINOMEscan binding assay, human RIPK1. The conditions noted are these: equilibrium dissociation constant. In a few lines:
as §1

A value given as a limit tells only on which side of the number the result lay.

What is called Kd is the equilibrium constant for the complex coming apart. One may read the IC50 as the concentration that gives 50% inhibition.

human RIPK3, sequence (Q9Y572 whole entry): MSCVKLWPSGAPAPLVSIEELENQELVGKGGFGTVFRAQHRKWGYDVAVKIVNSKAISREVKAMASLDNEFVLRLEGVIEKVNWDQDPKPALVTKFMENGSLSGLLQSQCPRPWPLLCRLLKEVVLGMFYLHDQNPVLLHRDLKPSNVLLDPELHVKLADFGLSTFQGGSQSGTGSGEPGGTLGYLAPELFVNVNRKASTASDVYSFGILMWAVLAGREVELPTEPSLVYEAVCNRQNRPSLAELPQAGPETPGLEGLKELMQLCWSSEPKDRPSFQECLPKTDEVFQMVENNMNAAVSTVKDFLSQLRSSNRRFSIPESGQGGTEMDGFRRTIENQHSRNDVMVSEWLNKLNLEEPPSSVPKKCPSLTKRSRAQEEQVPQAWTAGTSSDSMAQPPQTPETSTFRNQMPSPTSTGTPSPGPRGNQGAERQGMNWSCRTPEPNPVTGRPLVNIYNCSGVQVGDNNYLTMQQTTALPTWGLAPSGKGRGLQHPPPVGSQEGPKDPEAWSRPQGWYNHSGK
human MLKL (full length), sequence (Q8NB16 whole entry, the tested form may be a part): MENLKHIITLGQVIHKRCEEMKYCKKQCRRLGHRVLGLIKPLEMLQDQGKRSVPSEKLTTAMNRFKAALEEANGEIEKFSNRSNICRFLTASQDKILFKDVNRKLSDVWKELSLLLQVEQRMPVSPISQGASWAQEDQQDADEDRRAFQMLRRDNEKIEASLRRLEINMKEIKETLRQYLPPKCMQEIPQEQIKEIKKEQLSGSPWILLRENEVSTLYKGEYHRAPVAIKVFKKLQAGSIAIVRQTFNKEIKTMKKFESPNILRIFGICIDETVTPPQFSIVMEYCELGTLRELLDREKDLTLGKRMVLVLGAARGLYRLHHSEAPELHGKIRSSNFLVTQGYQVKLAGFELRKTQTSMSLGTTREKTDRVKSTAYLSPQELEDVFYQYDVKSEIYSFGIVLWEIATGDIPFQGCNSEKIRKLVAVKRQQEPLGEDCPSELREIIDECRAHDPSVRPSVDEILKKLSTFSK
human RIPK1, sequence (Q13546 whole entry): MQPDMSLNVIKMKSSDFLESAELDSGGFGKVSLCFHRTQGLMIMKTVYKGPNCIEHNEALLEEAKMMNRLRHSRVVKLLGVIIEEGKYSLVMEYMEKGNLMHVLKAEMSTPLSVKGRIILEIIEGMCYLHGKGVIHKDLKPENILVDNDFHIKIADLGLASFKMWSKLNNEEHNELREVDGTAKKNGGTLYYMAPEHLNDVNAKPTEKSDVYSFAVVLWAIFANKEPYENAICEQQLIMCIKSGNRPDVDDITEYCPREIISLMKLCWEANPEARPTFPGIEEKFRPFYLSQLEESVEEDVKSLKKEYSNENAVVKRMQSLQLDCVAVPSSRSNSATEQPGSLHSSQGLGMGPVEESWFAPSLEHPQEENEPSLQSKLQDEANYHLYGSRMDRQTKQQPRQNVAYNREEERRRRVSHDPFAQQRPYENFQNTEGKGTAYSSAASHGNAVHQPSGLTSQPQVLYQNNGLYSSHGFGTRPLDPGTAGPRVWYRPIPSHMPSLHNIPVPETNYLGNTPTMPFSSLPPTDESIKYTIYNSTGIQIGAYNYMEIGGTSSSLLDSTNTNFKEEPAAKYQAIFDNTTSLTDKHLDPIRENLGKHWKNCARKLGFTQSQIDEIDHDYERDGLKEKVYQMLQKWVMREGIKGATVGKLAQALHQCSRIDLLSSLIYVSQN

`C[C@H](Oc1cc(-c2nn(C)c3c(-c4cnn(C5CCOCC5)c4)cnc(N)c23)ccc1NS(=O)(=O)CC(F)(F)F)c1ccc(F)cc1` [Compound 44, (S)—N-(4-(4-amino-1-methyl-7-(1-(tetrahydro-2H-pyran-4-yl)-1H-pyrazol-4-yl)-1H-pyrazolo[4,3-c]pyridin-3-yl)-2-(1-(4-fluorophenyl)ethoxy)phenyl)-2,2,2-trifluoroethane-1-sulfonamide]: the equilibrium dissociation constant (Kd) is 1 to 100 nM on human MLKL (full length), above 10000 nM at human RIPK3 and above 10000 nM at human RIPK1. Also, the results for the concentration for half-maximal inhibition (IC50) (with U937 cells; in test [1]) were above 10000 nM and 10 to 1000 nM, respectively.

As to `CCS(=O)(=O)Nc1ccc(-c2nn(C)c3c(-c4cnn(C5CCOCC5)c4)cnc(N)c23)cc1O[C@@H](C)c1ccc(F)cc1` [Compound 45, (S)-N-(4-(4-amino-1-methyl-7-(1-(tetrahydro-2H-pyran-4-yl)-1H-pyrazol-4-yl)-1H-pyrazolo[4,3-c]pyridin-3-yl)-2-(1-(4-fluorophenyl)ethoxy)phenyl)ethanesulfonamide], the Kd at human MLKL (full length) is 1 to 100 nM; on human RIPK3, above 10000 nM; on human RIPK1, above 10000 nM. Besides, the values for the half-maximal inhibitory concentration (IC50) (in the test on U937 cells; in test [1]) were above 10000 nM and 10 to 1000 nM, respectively.

For the compound `C[C@H](Oc1cc(-c2nn(C)c3c(-c4ccnc(C(C)(C)C)c4)cnc(N)c23)ccc1NS(=O)(=O)C(F)F)c1ccc(F)cc1` [Compound 48, (S)-N-(4-(4-amino-7-(2-(tert-butyl)pyridin-4-yl)-1-methyl-1H-pyrazolo[4,3-c]pyridin-3-yl)-2-(1-(4-fluorophenyl)ethoxy)phenyl)-1,1-difluoromethanesulfonamide], the figures for the Kd at human MLKL (full length), at human RIPK3 and on human RIPK1 were 1 to 100 nM, above 10000 nM and above 10000 nM, respectively. Also, the half-maximal inhibitory concentration (IC50) in the test on U937 cells is above 10000 nM; in test [1] it was 1000 to 10000 nM.

Turning to `CC(C)n1nc(-c2ccc(NS(=O)(=O)C(F)F)c(O[C@@H](C)c3ccc(F)cc3)c2)c2c(N)ncc(-c3ccncc3)c21` [Compound 50, (S)-N-(4-(4-amino-1-isopropyl-7-(pyridin-4-yl)-1H-pyrazolo[4,3-c]pyridin-3-yl)-2-(1-(4-fluorophenyl)ethoxy)phenyl)-1,1-difluoromethanesulfonamide], the Kd is below 1 nM at human MLKL (full length), above 10000 nM on human RIPK3 and above 10000 nM on human RIPK1. The IC50 was above 10000 nM with U937 cells and 10 to 1000 nM in test [1].

Regarding `CC(C)n1nc(-c2ccc(NS(=O)(=O)C(F)F)c(O[C@@H](C)c3ccc(F)cc3)c2)c2c(N)ncc(-c3cnn(C4CCOCC4)c3)c21` [Compound 51, (S)-N-(4-(4-amino-1-isopropyl-7-(1-(tetrahydro-2H-pyran-4-yl)-1H-pyrazol-4-yl)-1H-pyrazolo[4,3-c]pyridin-3-yl)-2-(1-(4-fluorophenyl)ethoxy)phenyl)-1,1-difluoromethanesulfonamide], the figures for the Kd at human MLKL (full length), at human RIPK3 and at human RIPK1 were 1 to 100 nM, above 10000 nM and above 10000 nM, respectively. Moreover, the IC50 with U937 cells was above 10000 nM; in test [1], 10 to 1000 nM.

For `CC(C)n1nc(-c2ccc(NS(=O)(=O)C(F)F)c(O[C@@H](C)c3ccc(F)cc3)c2)c2c(N)ncc(-c3cnn(C)c3)c21` [Compound 52, (S)-N-(4-(4-amino-1-isopropyl-7-(1-methyl-1H-pyrazol-4-yl)-1H-pyrazolo[4,3-c]pyridin-3-yl)-2-(1-(4-fluorophenyl)ethoxy)phenyl)-1,1-difluoromethanesulfonamide], the Kd was 1 to 100 nM at human MLKL (full length), above 10000 nM at human RIPK3 and above 10000 nM on human RIPK1. The IC50 was above 10000 nM with U937 cells and 10 to 1000 nM in test [1].

Regarding `C[C@H](Oc1cc(-c2nn(C)c3c(C4=CCCN(C)C4)cnc(N)c23)ccc1NS(=O)(=O)C(F)F)c1ccc(F)cc1` [Compound 55, (S)—N-(4-(4-amino-1-methyl-7-(1-methyl-1,2,5,6-tetrahydropyridin-3-yl)-1H-pyrazolo[4,3-c]pyridin-3-yl)-2-(1-(4-fluorophenyl)ethoxy)phenyl)-1,1-difluoromethanesulfonamide], the results for the Kd on human MLKL (full length), at human RIPK3 and at human RIPK1 were below 1 nM, above 10000 nM and above 10000 nM, respectively. Further, the IC50 was above 10000 nM with U937 cells and 1000 to 10000 nM in test [1].

Regarding `CC#Cc1cnc(N)c2c(-c3ccc(NS(=O)(=O)C(F)F)c(O[C@@H](C)c4ccc(F)cc4)c3)nn(C)c12` [Compound 56, (S)-N-(4-(4-amino-1-methyl-7-(prop-1-yn-1-yl)-1H-pyrazolo[4,3-c]pyridin-3-yl)-2-(1-(4-fluorophenyl)ethoxy)phenyl)-1,1-difluoromethanesulfonamide], the Kd at human MLKL (full length) is below 1 nM; at human RIPK3, above 10000 nM; at human RIPK1, above 10000 nM. Moreover, the figures for the IC50 (in the test on U937 cells; in test [1]) were above 10000 nM and 10 to 1000 nM, respectively.

On to `C[C@H](Oc1cc(-c2nn(C)c3c(-c4ccnc(C(F)F)c4)cnc(N)c23)ccc1NS(=O)(=O)C(F)F)c1ccc(F)cc1` [Compound 57, (S)-N-(4-(4-amino-7-(2-(difluoromethyl)pyridin-4-yl)-1-methyl-1H-pyrazolo[4,3-c]pyridin-3-yl)-2-(1-(4-fluorophenyl)ethoxy)phenyl)-1,1-difluoromethanesulfonamide], for which the Kd on human MLKL (full length) was 1 to 100 nM; at human RIPK3, above 10000 nM; at human RIPK1 it was above 10000 nM. Also, the half-inhibitory concentration (IC50) was above 10000 nM in the test with U937 cells and 10 to 1000 nM in test [1].

In the case of `C[C@H](Oc1cc(-c2nn(C)c3c(C#CC4CCOCC4)cnc(N)c23)ccc1NS(=O)(=O)C(F)F)c1ccc(F)cc1` [Compound 58, (S)-N-(4-(4-amino-1-methyl-7-((tetrahydro-2H-pyran-4-yl)ethynyl)-1H-pyrazolo[4,3-c]pyridin-3-yl)-2-(1-(4-fluorophenyl)ethoxy)phenyl)-1,1-difluoromethanesulfonamide], the values for the Kd at human MLKL (full length), at human RIPK3 and at human RIPK1 were below 1 nM, above 10000 nM and above 10000 nM, respectively. In addition, the IC50 in the test with U937 cells was above 10000 nM; in test [1] it was 10 to 1000 nM.

In the case of `C[C@H](Oc1cc(-c2nn(C)c3c(-c4cnn(C5CCNCC5)c4)cnc(N)c23)ccc1NS(=O)(=O)C(F)F)c1ccc(F)cc1` [Compound 59, (S)-N-(4-(4-amino-1-methyl-7-(1-(piperidin-4-yl)-1H-pyrazol-4-yl)-1H-pyrazolo[4,3-c]pyridin-3-yl)-2-(1-(4-fluorophenyl)ethoxy)phenyl)-1,1-difluoromethanesulfonamide], the Kd was below 1 nM at human MLKL (full length), above 10000 nM at human RIPK3 and above 10000 nM at human RIPK1. The results for the IC50 (in the test on U937 cells; in test [1]) were above 10000 nM and 10 to 1000 nM, respectively.

For `C[C@H](Oc1cc(-c2nn(C)c3c(-c4cnn(C5CC6CCC(C5)N6C)c4)cnc(N)c23)ccc1NS(=O)(=O)C(F)F)c1ccc(F)cc1` (stereo partly drawn) [Compound 73, N-(4-(4-amino-1-methyl-7-(1-(8-methyl-8-azabicyclo[3.2.1]octan-3-yl)-1H-pyrazol-4-yl)-1H-pyrazolo[4,3-c]pyridin-3-yl)-2-((S)-1-(4-fluorophenyl)ethoxy)phenyl)-1,1-difluoromethanesulfonamide], the Kd is below 1 nM on human MLKL (full length), above 10000 nM at human RIPK3 and above 10000 nM on human RIPK1. The IC50 is above 10000 nM in the test with U937 cells and 10 to 1000 nM in test [1].

These data come from patent publication US20250059188A1, “ARYLSULPHONAMIDE COMPOUNDS” (Anaxis Pharma Pty Ltd, priority 2021, published 2025).
